pIC50: −log10 of the molar value. Read-outs that look alike come from different tables or passages of the source.
How the values were obtained:
[1] = target: T1, GDP-bound KRAS protein (aa 1-169), containing both G12C and C118A amino acid substitutions (Homo sapiens, UniProt P01116, C118A/G12C); test: Coupled Nucleotide Exchange Assay (Table 15 conditions: 2 hours pre-incubation); assay type: biochemical; settings: 2 hours compound pre-incubation (Table 15 conditions)
Protocol: For compounds in Table 15, the following assay conditions were employed:
Following compound pre-incubation, purified SOS protein (aa 564-1049) and GTP (Roche 10106399001) were added to the assay wells and incubated for an additional hour. […] The assay plates were then read on a PerkinElmer EnVision Multilabel Reader, using AlphaScreen® technology, and data were analyzed using a 4-parameter logistic model to calculate IC50 values.

[2] = target: T1, GDP-bound KRAS protein (aa 1-169), containing both G12C and C118A amino acid substitutions; test: Coupled Nucleotide Exchange Assay (Table 16 conditions: 5 min pre-incubation); assay type: biochemical; settings: 5 min compound pre-incubation; SOS-mediated nucleotide exchange, AlphaScreen
Protocol: (§1) For compounds in Table 16, the following assay conditions were employed:
The assay plates were then read on a PerkinElmer EnVision Multilabel Reader, using AlphaScreen® technology, and data were analyzed using a 4-parameter logistic model to calculate IC50 values.

[3] = test system: Phosphorylation of ERK1/2 in MIA PaCa-2 cells; test: Phospho-ERK1/2 MSD Assay, MIA PaCa-2 (Table 16 conditions: 2 hours compound treatment); assay type: cell-based; settings: 10 ng/mL EGF for 10 min, read-out: p-ERK IC50 (MIA PaCa-2)
Protocol: as §1
Sixteen hours prior to compound treatment, MIA PaCa-2 or A549 cells were seeded in 96-well cell culture plates at a density of 25,000 cells/well and incubated at 37° C., 5% CO2. A compound dose-response titration was diluted in growth media, added to appropriate wells of a cell culture plate, and then incubated at 37° C., 5% CO2 for 2 hours. […] Phosphorylation of ERK1/2 in compound-treated lysates was assayed using Phospho-ERK1/2 Whole Cell Lysate kits (Meso Scale Discovery K151DWD) according to the manufacturer's protocol. Assay plates were read on a Meso Scale Discovery Sector Imager 6000, and data were analyzed using a 4-parameter logistic model to calculate IC50 values.

[4] = Homo sapiens, MIA PaCa-2, MIA PaCa-2 cells

T1 sequence (P01116 1-169 isoform P01116-2 G12C/C118A): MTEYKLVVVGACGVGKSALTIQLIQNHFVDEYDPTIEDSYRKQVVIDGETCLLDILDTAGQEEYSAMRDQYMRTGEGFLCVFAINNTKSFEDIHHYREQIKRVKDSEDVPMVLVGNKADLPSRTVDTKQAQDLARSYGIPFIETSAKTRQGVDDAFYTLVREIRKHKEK

In the case of `C=CC(=O)N1CCN(c2snc3nc(-c4cc(OC)cc5ccccc45)c(Cl)cc23)C(C)C1` (racemic) [Example 2-4, 1-(4-(5-chloro-6-(3-methoxy-1-naphthalenyl)[1,2]thiazolo[3,4-b]pyridin-3-yl)-3-methyl-1-piperazinyl)-2-propen-1-one], the “Coupled exchange IC50” value [1] was over 250000 nM.
In the case of `C=CC(=O)N1CCN(c2nc(=O)n(-c3ccccc3C(C)C)c3cc(-c4c(O)cccc4F)c(Cl)cc23)[C@@H](C)C1` (single isomer, unassigned) [Example 8-3-2], the “Coupled exchange IC50” value [1] was 340 nM.
In the case of `C=C(CBr)C(=O)N1CCN(c2snc3c(F)c(-c4cc(O)cc5ccccc45)c(Cl)cc23)CC1` (single isomer, unassigned) [Example 18-2, 2-(bromomethyl)-1-(4-(5-chloro-7-fluoro-6-(3-hydroxy-1-naphthalenyl)-2,1-benzothiazol-3-yl)-1-piperazinyl)-2-propen-1-one], the “Coupled exchange IC50” value [1] was 760 nM.
For `C=C(CO)C(=O)N1CCN(c2snc3c(F)c(-c4cc(O)cc5ccccc45)c(Cl)cc23)CC1` (single isomer, unassigned) [Example 18-3, 1-(4-(5-chloro-7-fluoro-6-(3-hydroxy-1-naphthalenyl)-2,1-benzothiazol-3-yl)-1-piperazinyl)-2-(hydroxymethyl)-2-propen-1-one], the “Coupled exchange IC50” value [1] was 24600 nM.
For `C=CC(=O)N1CCN(c2snc3c(F)c(-c4cc(O)cc5ccccc45)c(Cl)cc23)[C@@H](C)C1` [Example 1-19-1, 1-((3S)-4-(5-chloro-7-fluoro-6-(3-hydroxy-1-naphthalenyl)-2,1-benzothiazol-3-yl)-3-methyl-1-piperazinyl)-2-propen-1-one], the “Coupled exchange IC50” value [1] was 115 nM.
With `C=CC(=O)N1CCN(c2nc(=O)n(-c3ccccc3C(C)C)c3cc(-c4c(O)cccc4F)c(Cl)cc23)[C@@H](C)C1` [Example 8-3, 6-chloro-7-(2-fluoro-6-hydroxyphenyl)-4-((2S)-2-methyl-4-(2-propenoyl)-1-piperazinyl)-1-(2-(2-propanyl)phenyl)-2(1H)-quinazolinone] the “Coupled exchange IC50” value [1] was 283 nM.
In the case of `C=CC(=O)N1CCN(c2nc(=O)n(-c3ccccc3C(C)C)c3cc(-c4c(O)cccc4F)c(Cl)cc23)[C@@H](C)C1` [Example 8-3-1, 6-chloro-7-(2-fluoro-6-hydroxy-phenyl)-4-((2S)-2-methyl-4-(2-propenoyl)-1-piperazinyl)-1-(2-(2-propanyl)-phenyl)-2(1H)-quinazolinone], the “Coupled exchange IC50” value [1] was 282 nM.
With `C=CC(=O)N1CCN(c2nnc(-c3ccccc3C(C)C)c3cc(-c4c(O)cccc4F)c(C)nc23)CC1` [Example 27, 1-(4-(3-(2-Fluoro-6-hydroxyphenyl)-2-methyl-5-(2-(2-propanyl)phenyl)pyrido[2,3-d]pyridazin-8-yl)-1-piperazinyl)-2-propen-1-one] the “Coupled exchange IC50” value [1] was 1280 nM.
`C=CC(=O)N1CCN(c2nc(=O)n(-c3c(C)ccnc3C3CC3)c3nc(-c4c(O)cccc4F)c(F)cc23)[C@@H](C)C1` [Example 42, 1-(2-Cyclopropyl-4-methyl-3-pyridinyl)-6-fluoro-7-(2-fluoro-6-hydroxyphenyl)-4-((2S)-2-methyl-4-(2-propenoyl)-1-piperazinyl)pyrido[2,3-d]pyrimidin-2(1H)-one] showed an IC50 [2] of 335 nM and a pIC50 ([3]; MIA PaCa-2 cells) of 6.44.
`C=CC(=O)N1CCN(c2nc(=O)n(-c3c(C)ccnc3C3CC3)c3nc(-c4c(O)cccc4F)c(F)cc23)[C@@H](C)C1` [Example 42-1, 1-(2-cyclopropyl-4-methyl-3-pyridinyl)-6-fluoro-7-(2-fluoro-6-hydroxyphenyl)-4-((2S)-2-methyl-4-(2-propenoyl)-1-piperazinyl)pyrido-[2,3-d]pyrimidin-2(1H)-one] gave an IC50 [2] of 150 nM and a pIC50 ([3]; MIA PaCa-2 cells) of 6.99.
In the case of `C=CC(=O)N1CCN(c2nc(=O)n(-c3c(C(C)C)ncnc3C(C)C)c3nc(-c4ccccc4F)c(Cl)cc23)[C@@H](C)C1` [Example 43, 6-Chloro-1-(4,6-di(2-propanyl)-5-pyrimidinyl)-7-(2-fluorophenyl)-4-((2S)-2-methyl-4-(2-propenoyl)-1-piperazinyl)pyrido[2,3-d]pyrimidin-2(1H)-one], the IC50 [2] was 38 nM and the pIC50 [3, 4] was 7.47.
`C=CC(=O)N1CCN(c2nc(=O)n(-c3c(C)ccnc3C3CC3)c3nc(-c4c(O)cccc4F)c(Cl)cc23)[C@@H](C)C1` [Example 44-1] gave an IC50 [2] of 33 nM and a pIC50 ([3]; MIA PaCa-2 cells) of 7.60.
Compound `C=CC(=O)N1CCN(c2nc(=O)n(-c3c(C)ccnc3C3CC3)c3nc(-c4c(O)cccc4F)c(Cl)cc23)[C@@H](C)C1` [Example 44-2] has an IC50 [2] of 208 nM and a pIC50 ([3]; MIA PaCa-2 cells) of 6.86.
For `C=CC(=O)N1CCN(c2nc(=O)n(-c3c(C)ccnc3C3CC3)c3nc(-c4c(O)cccc4F)c(Cl)cc23)[C@@H](C)C1` [Example 44], the IC50 [2] was 103 nM and the pIC50 ([3]; MIA PaCa-2 cells) was 7.19.
Compound `C=CC(=O)N1CCN(c2nc(=O)n(-c3c(C)ccnc3C3CC3)c3nc(-c4ccccc4F)c(Cl)cc23)[C@@H](C)C1` [Example 45, 6-Chloro-1-(2-cyclopropyl-4-methyl-3-pyridinyl)-7-(2-fluorophenyl)-4-((2A)-2-methyl-4-(2-propenoyl)-1-piperazinyl)pyrido[2,3-d]pyrimidin-2(1H)-one] has a pIC50 [2] of 6.50 and a pIC50 ([3]; MIA PaCa-2 cells) of 7.21.
`C=CC(=O)N1CCN(c2nc(=O)n(-c3c(C)ccnc3CC)c3nc(-c4ccccc4F)c(Cl)cc23)[C@@H](C)C1` [Example 46, 6-Chloro-1-(2-ethyl-4-methyl-3-pyridinyl)-7-(2-fluorophenyl)-4-((2S)-2-methyl-4-(2-propenoyl)-1-piperazinyl)pyrido[2,3-d]pyrimidin-2(1H)-one] was tested, and the IC50 [2] was 493 nM and the pIC50 ([3]; MIA PaCa-2 cells) was 6.77.
`C=CC(=O)N1CCN(c2nc(=O)n(-c3c(C)ccnc3CC)c3nc(-c4ccccc4F)c(Cl)cc23)[C@@H](C)C1` [Example 46-1, 6-chloro-1-(2-ethyl-4-methyl-3-pyridinyl)-7-(2-fluorophenyl)-4-((2S)-2-methyl-4-(2-propenoyl)-1-piperazinyl)pyrido-[2,3-d]pyrimidin-2(1H)-one] gave an IC50 [2] of 170 nM and a pIC50 ([3]; MIA PaCa-2 cells) of 6.90.
Work on `C=CC(=O)N1CCN(c2nc(=O)n(-c3c(C)ccnc3CC)c3nc(-c4ccccc4F)c(Cl)cc23)[C@@H](C)C1` [Example 46-2, 6-chloro-1-(2-ethyl-4-methyl-3-pyridinyl)-7-(2-fluorophenyl)-4-((2S)-2-methyl-4-(2-propenoyl)-1-piperazinyl)pyrido-[2,3-d]pyrimidin-2(1H)-one] yielded an IC50 [2] of 971 nM and a pIC50 ([3]; MIA PaCa-2 cells) of 6.26.
`C=CC(=O)N1CCN(c2nc(=O)n(-c3c(CC)ncnc3CC)c3nc(-c4ccccc4F)c(Cl)cc23)[C@@H](C)C1` [Example 47, 6-Chloro-1-(4,6-diethyl-5-pyrimidinyl)-7-(2-fluorophenyl)-4-((2S)-2-methyl-4-(2-propenoyl)-1-piperazinyl)pyrido[2,3-d]pyrimidin-2(1H)-one] was tested, and the IC50 [2] was 409 nM and the pIC50 [3, 4] was 6.82.
In the case of `C=CC(=O)N1CCN(c2nc(=O)n(-c3ccccc3C(C)(C)C)c3nc(-c4c(O)cccc4F)c(Cl)cc23)[C@@H](C)C1` [Example 49, 6-Chloro-7-(2-fluoro-6-hydroxyphenyl)-1-(2-(2-methyl-2-propanyl)phenyl)-4-((2S)-2-methyl-4-(2-propenoyl)-1-piperazinyl)pyrido[2,3-d]pyrimidin-2(1H)-one], the IC50 [2] was 177 nM and the pIC50 ([3]; MIA PaCa-2 cells) was 6.81.
In the case of `C=CC(=O)N1CCN(c2nc(=O)n(-c3ccccc3C(C)C)c3nc(-c4ccccc4F)c(C)nc23)[C@@H](C)C1` [Example 51, 7-(2-Fluorophenyl)-6-methyl-4-((2A)-2-methyl-4-(2-propenoyl)-1-piperazinyl)-1-(2-(2-propanyl)phenyl)-2(1H)-pteridinone], the pIC50 [2] was 6.27 and the pIC50 ([3]; MIA PaCa-2 cells) was 6.36.
`C=CC(=O)N1CCN(c2nc(=O)n(-c3c(C)cnn3C(C)C)c3nc(-c4ccccc4F)c(Cl)cc23)[C@@H](C)C1` [Example 53, 6-Chloro-7-(2-fluorophenyl)-1-(4-methyl-1-(2-propanyl)-1H-pyrazol-5-yl)-4-((2S)-2-methyl-4-(2-propenoyl)-1-piperazinyl)pyrido[2,3-d]pyrimidin-2(1H)-one] was tested, and the IC50 [2] was 125 nM and the pIC50 ([3]; MIA PaCa-2 cells) was 7.15.
